GI50 and TGI data for 13 compounds are collected here from PubChem BioAssay (NCI).

Test systems include CAKI-1 renal; HCT-15 colon; NCI/ADR-RES ovarian; SK-MEL-28 melanoma; HT29 colon; TK-10 renal; HCT-116 colon; SNB-19 CNS; PC-3 prostate; RPMI-8226 leukemia.
What all share (experiment): inhibition of tumour cell growth, NCI panel, 48 h

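Assay format: 96-well plates, 48-hour exposure. GI50 is the concentration that inhibits growth by half. TGI: concentration producing complete growth inhibition.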

Regarding `COC(=O)[C@]12CC[C@@H](C)[C@H](C)[C@@H]1C1=CC[C@@H]3[C@@]4(C)CC(=O)[C@H](O)[C@@]5(C)COC(=C45)C[C@@]3(C)[C@]1(C)CC2`, the GI50 is 15.6 µM in the assay with CAKI-1 renal; 18 µM in the assay with HCT-15 colon; 18.4 µM in the assay on NCI/ADR-RES ovarian; 19.2 µM in the assay on SK-MEL-28 melanoma; 19.2 µM in the assay on HT29 colon; 20.4 µM in the assay on TK-10 renal. Also, the GI50 in the assay on HCT-116 colon was 18.7 µM; in the assay with SNB-19 CNS, 19 µM; in the assay on PC-3 prostate, 16.9 µM; in the assay on RPMI-8226 leukemia, 21 µM. Further, the TGI in the assay with CAKI-1 renal turned out to be 29.3 µM; in the assay on HCT-15 colon, 33.4 µM; with NCI/ADR-RES ovarian, 37.6 µM; in the assay on SK-MEL-28 melanoma, 38.6 µM; in the assay with HT29 colon, 34.7 µM; with TK-10 renal, 38 µM. Besides, the TGI with HCT-116 colon came to 34.3 µM; with SNB-19 CNS, 42.1 µM; in the assay with PC-3 prostate, 33.8 µM; in the assay with RPMI-8226 leukemia it was 45.7 µM.

For the compound `NC(N)=NC(CC(=O)O)c1ccccc1` (stereo not drawn), the TGI with CAKI-1 renal, with HCT-15 colon, with NCI/ADR-RES ovarian, in the assay with SK-MEL-28 melanoma, in the assay with HT29 colon and with TK-10 renal was > 100 µM in each case. Moreover, the TGI in the assay with HCT-116 colon, in the assay with SNB-19 CNS, with PC-3 prostate and with RPMI-8226 leukemia was > 100 µM each time.

Turning to `N#C/C(=C\c1c(-c2ccccc2)[nH]c2ccccc12)C(=O)c1ccc(Cl)cc1`, the GI50 in the assay on CAKI-1 renal was 1.23 µM; in the assay with HCT-15 colon it was 1.38 µM; in the assay on NCI/ADR-RES ovarian, 0.575 µM; in the assay on SK-MEL-28 melanoma, 3.33 µM; with HT29 colon it was 0.476 µM; in the assay on TK-10 renal, 8.6 µM. The GI50 in the assay on HCT-116 colon was 0.68 µM; with SNB-19 CNS it was 3.07 µM; with PC-3 prostate, 3.42 µM; with RPMI-8226 leukemia, 1.32 µM. Also, the TGI in the assay with CAKI-1 renal is > 31.2 µM; in the assay on HCT-15 colon it was > 100 µM; in the assay with NCI/ADR-RES ovarian, 12.6 µM; in the assay with SK-MEL-28 melanoma, 41.2 µM; in the assay on HT29 colon it was 21.4 µM; in the assay with TK-10 renal, 43.8 µM. Further, the TGI with HCT-116 colon is 23.9 µM; in the assay with SNB-19 CNS it was 20.2 µM; with PC-3 prostate, > 70.3 µM; with RPMI-8226 leukemia, 20 µM.

As for `COc1ccc(-c2cc(-c3ccc(Nc4nc(Nc5ccc(Cl)cc5)nc(Nc5ccc(Cl)cc5)n4)cc3)nc(N)c2C#N)cc1`, the GI50 with CAKI-1 renal is 1.47 µM; in the assay on HCT-15 colon, 1.54 µM; in the assay with NCI/ADR-RES ovarian, 13.3 µM; in the assay on SK-MEL-28 melanoma it was 0.49 µM; with HT29 colon, 2.25 µM; in the assay with TK-10 renal, 2.08 µM. Also, the GI50 is 1.65 µM in the assay on HCT-116 colon, 0.982 µM in the assay on PC-3 prostate and 0.931 µM in the assay with RPMI-8226 leukemia. Moreover, the TGI with CAKI-1 renal was 4.38 µM; in the assay on HCT-15 colon it was 5.24 µM; in the assay on NCI/ADR-RES ovarian it was > 100 µM; in the assay on SK-MEL-28 melanoma, 1.22 µM; in the assay with HT29 colon it was 13 µM; with TK-10 renal, 3.77 µM. Besides, the TGI in the assay on HCT-116 colon was 3.65 µM; with SNB-19 CNS, > 24.1 µM; with RPMI-8226 leukemia it was > 21.9 µM.

With `COC(=O)c1cnc(=O)n(C2CC(O)C(CO)O2)c1` (stereo not drawn), the GI50 in the assay with CAKI-1 renal, in the assay on HCT-15 colon, in the assay with NCI/ADR-RES ovarian, in the assay with SK-MEL-28 melanoma, with HT29 colon and in the assay with TK-10 renal was > 100 µM each time. Moreover, the GI50 was > 100 µM with HCT-116 colon, > 100 µM in the assay with SNB-19 CNS, 0.811 µM in the assay on PC-3 prostate and 1.42 µM with RPMI-8226 leukemia. In addition, the TGI with CAKI-1 renal, with HCT-15 colon, in the assay with NCI/ADR-RES ovarian, in the assay on SK-MEL-28 melanoma, with HT29 colon and in the assay on TK-10 renal was > 100 µM in each case. Moreover, the TGI in the assay on HCT-116 colon is > 100 µM; with SNB-19 CNS, > 100 µM; with PC-3 prostate, > 100 µM; with RPMI-8226 leukemia it was > 58.5 µM.

With `O=C(c1cccs1)c1c(C(F)(F)F)n([O-])c2ccc(C(F)(F)F)cc2[n+]1=O`, the GI50 is 0.18 µM with CAKI-1 renal; 0.286 µM with HCT-15 colon; 0.219 µM with NCI/ADR-RES ovarian; 0.451 µM in the assay with SK-MEL-28 melanoma; 0.19 µM in the assay on HT29 colon; 0.596 µM in the assay on TK-10 renal. In addition, the GI50 in the assay on HCT-116 colon is 0.17 µM; with SNB-19 CNS, 1.11 µM; with PC-3 prostate it was 0.118 µM; with RPMI-8226 leukemia, 0.279 µM. For the same compound, the TGI amounted to 0.337 µM in the assay on CAKI-1 renal; 0.73 µM in the assay with HCT-15 colon; 0.573 µM in the assay on NCI/ADR-RES ovarian; 0.908 µM in the assay with SK-MEL-28 melanoma; 0.364 µM in the assay on HT29 colon; 1.31 µM with TK-10 renal. Moreover, the TGI in the assay with HCT-116 colon was 0.314 µM; in the assay on SNB-19 CNS, 2.53 µM; in the assay with PC-3 prostate, 0.259 µM; in the assay with RPMI-8226 leukemia, 1.12 µM.

In the case of `Cc1ccc(S(=O)(=O)NC(CCC(=O)Nc2ccc(Cl)cc2)C(=O)Nc2ccc(Cl)cc2)cc1` (stereo not drawn), the GI50 with CAKI-1 renal was 0.473 µM; in the assay on HCT-15 colon, 0.118 µM; in the assay on NCI/ADR-RES ovarian, 1.03 µM; in the assay on SK-MEL-28 melanoma, 0.625 µM; in the assay with HT29 colon, 1.35 µM; in the assay on TK-10 renal, 2.95 µM. Further, the GI50 in the assay on HCT-116 colon was 0.139 µM; in the assay on SNB-19 CNS, 0.707 µM; with PC-3 prostate, 0.396 µM; in the assay with RPMI-8226 leukemia it was 0.826 µM. For the same compound, the TGI was determined as 8.14 µM in the assay on CAKI-1 renal; 7.36 µM with HCT-15 colon; 7.63 µM in the assay on NCI/ADR-RES ovarian; 6.48 µM in the assay on SK-MEL-28 melanoma; 9.85 µM with HT29 colon; 10 µM with TK-10 renal. The TGI in the assay on HCT-116 colon came to 7.05 µM; with SNB-19 CNS it was 4.4 µM; in the assay on PC-3 prostate it was 6.33 µM; with RPMI-8226 leukemia, 7.43 µM.

Take `O=C1c2ccccc2-c2c1c1ccccc1c(=O)n2CCO`: the TGI with CAKI-1 renal was > 51.7 µM; in the assay with HCT-15 colon, > 100 µM; with NCI/ADR-RES ovarian, > 100 µM; in the assay on SK-MEL-28 melanoma, > 100 µM; in the assay with HT29 colon, > 100 µM; in the assay on TK-10 renal, > 100 µM. The TGI with HCT-116 colon was > 79.3 µM; in the assay with SNB-19 CNS it was > 100 µM; with PC-3 prostate, > 100 µM; in the assay on RPMI-8226 leukemia, > 100 µM.

Regarding `COc1cc[nH]c1/C=C1\C(=O)Nc2ccc(F)c(C#C[C@@H](O)[C@@H](N)[C@@H](C)O)c21`, the GI50 with CAKI-1 renal is 0.415 µM; in the assay with HCT-15 colon, 0.839 µM; in the assay on NCI/ADR-RES ovarian it was 6.65 µM; in the assay on SK-MEL-28 melanoma, 0.648 µM; with HT29 colon, 0.448 µM; with TK-10 renal, 0.258 µM. Also, the GI50 in the assay with HCT-116 colon is 0.323 µM; with SNB-19 CNS it was 0.909 µM; with PC-3 prostate, 0.369 µM; in the assay on RPMI-8226 leukemia it was 0.683 µM. Moreover, the TGI with CAKI-1 renal was found to be 5.73 µM; with HCT-15 colon, 18.3 µM; with NCI/ADR-RES ovarian, 25 µM; in the assay on SK-MEL-28 melanoma it was 2.86 µM; with HT29 colon it was 1.49 µM; with TK-10 renal, 1.86 µM. Moreover, the TGI with HCT-116 colon came out at 2.89 µM; in the assay with SNB-19 CNS, 5.51 µM; in the assay on PC-3 prostate it was 1.6 µM; in the assay with RPMI-8226 leukemia, 1.83 µM.

With `COc1cc(C(=O)O)c([N+](=O)[O-])c(OC)c1OC`, the TGI in the assay with CAKI-1 renal, in the assay on HCT-15 colon, in the assay on NCI/ADR-RES ovarian, with SK-MEL-28 melanoma, in the assay with HT29 colon and with TK-10 renal was > 100 µM in each case. Besides, the TGI in the assay with HCT-116 colon, in the assay on SNB-19 CNS, in the assay on PC-3 prostate and in the assay with RPMI-8226 leukemia was > 100 µM each time.

For the compound `O=[N+]([O-])c1ccc(N/N=C\c2cc(Cl)ccc2O)nc1`, the GI50 is 0.278 µM in the assay on CAKI-1 renal; 0.735 µM in the assay with HCT-15 colon; 0.388 µM in the assay on NCI/ADR-RES ovarian; 3.65 µM with SK-MEL-28 melanoma; 4.9 µM in the assay with HT29 colon; 2 µM with TK-10 renal. In addition, the GI50 is 1.2 µM in the assay with HCT-116 colon, 3.41 µM with SNB-19 CNS, 0.747 µM with PC-3 prostate and 0.987 µM in the assay on RPMI-8226 leukemia. The TGI is 1.07 µM in the assay on CAKI-1 renal; > 100 µM with HCT-15 colon; 8.32 µM with NCI/ADR-RES ovarian; > 100 µM in the assay on SK-MEL-28 melanoma; > 100 µM with HT29 colon; 23.6 µM in the assay with TK-10 renal. Also, the TGI in the assay on HCT-116 colon was 12.5 µM; in the assay on SNB-19 CNS, > 100 µM; in the assay with PC-3 prostate, 55.6 µM; in the assay with RPMI-8226 leukemia, > 100 µM.

As to `CCCCCCCCCCCCc1ccc(C(=O)/C=C/C(=O)O)cc1`, the GI50 was 1.76 µM in the assay with CAKI-1 renal; 1.71 µM in the assay with HCT-15 colon; 7.78 µM in the assay with NCI/ADR-RES ovarian; 1.92 µM in the assay with SK-MEL-28 melanoma; 1.81 µM in the assay with HT29 colon; 1.82 µM in the assay with TK-10 renal. Moreover, the GI50 in the assay with HCT-116 colon was 1.54 µM; in the assay with SNB-19 CNS, 7.07 µM; with PC-3 prostate it was 8.12 µM; in the assay on RPMI-8226 leukemia it was 2.11 µM. Besides, the TGI in the assay on CAKI-1 renal stood at 3.58 µM; with HCT-15 colon, 3.45 µM; in the assay with NCI/ADR-RES ovarian, 24.5 µM; in the assay with SK-MEL-28 melanoma, 3.74 µM; in the assay on HT29 colon, 4 µM; in the assay on TK-10 renal, 3.64 µM. Moreover, the TGI in the assay on HCT-116 colon worked out at 3.39 µM; in the assay on SNB-19 CNS, 22 µM; with PC-3 prostate, 26.6 µM; in the assay on RPMI-8226 leukemia, 6.75 µM.

As for `O=C1C=C[C@]2(C[C@@H](c3cccc(C(F)(F)F)c3)O[C@@H](c3cccc(C(F)(F)F)c3)O2)O1`, the GI50 in the assay with CAKI-1 renal was 2.95 µM; in the assay on HCT-15 colon, 1.66 µM; in the assay with NCI/ADR-RES ovarian it was 1.9 µM; with SK-MEL-28 melanoma, 2.34 µM; with HT29 colon, 2.12 µM; in the assay on TK-10 renal it was 1.66 µM. The GI50 was 1.08 µM in the assay on HCT-116 colon, 3.13 µM in the assay on SNB-19 CNS, 2.4 µM in the assay with PC-3 prostate and 1.12 µM in the assay with RPMI-8226 leukemia. Also, the TGI with CAKI-1 renal worked out at 12.4 µM; with HCT-15 colon, 4.13 µM; with NCI/ADR-RES ovarian, 6.62 µM; with SK-MEL-28 melanoma, 6.44 µM; in the assay on HT29 colon, 5.52 µM; in the assay on TK-10 renal it was 3.22 µM. Besides, the TGI in the assay with HCT-116 colon came to 2.64 µM; with SNB-19 CNS, 16.1 µM; with PC-3 prostate it was 8.27 µM; in the assay on RPMI-8226 leukemia, 5.97 µM.
